Earlier results in US10668058B2, “Device and method for delivery of a medicament” (Philip Morris Products S.A., priority 2007, dated 2020).

Settings: 25° C.

For `CN1CCCC1c1cccnc1` (stereo not shown) [Nicotine only, Nicotine], the vapor pressure is listed as 0.04 mm Hg.
